Assay results: ChEMBL document CHEMBL1201862, “PubChem BioAssay data set” (2004)
Activity calls are given as the source filed them.

How the values were obtained:
[1] = target: T1, Insulin-degrading enzyme (Homo sapiens, UniProt P14735); assay: recombinant IDE activation, cell-free – biochemical, fluorescence polarization, counter-screen for IDE activator project, dose response (AID 588681)
T1 sequence (P14735 whole entry): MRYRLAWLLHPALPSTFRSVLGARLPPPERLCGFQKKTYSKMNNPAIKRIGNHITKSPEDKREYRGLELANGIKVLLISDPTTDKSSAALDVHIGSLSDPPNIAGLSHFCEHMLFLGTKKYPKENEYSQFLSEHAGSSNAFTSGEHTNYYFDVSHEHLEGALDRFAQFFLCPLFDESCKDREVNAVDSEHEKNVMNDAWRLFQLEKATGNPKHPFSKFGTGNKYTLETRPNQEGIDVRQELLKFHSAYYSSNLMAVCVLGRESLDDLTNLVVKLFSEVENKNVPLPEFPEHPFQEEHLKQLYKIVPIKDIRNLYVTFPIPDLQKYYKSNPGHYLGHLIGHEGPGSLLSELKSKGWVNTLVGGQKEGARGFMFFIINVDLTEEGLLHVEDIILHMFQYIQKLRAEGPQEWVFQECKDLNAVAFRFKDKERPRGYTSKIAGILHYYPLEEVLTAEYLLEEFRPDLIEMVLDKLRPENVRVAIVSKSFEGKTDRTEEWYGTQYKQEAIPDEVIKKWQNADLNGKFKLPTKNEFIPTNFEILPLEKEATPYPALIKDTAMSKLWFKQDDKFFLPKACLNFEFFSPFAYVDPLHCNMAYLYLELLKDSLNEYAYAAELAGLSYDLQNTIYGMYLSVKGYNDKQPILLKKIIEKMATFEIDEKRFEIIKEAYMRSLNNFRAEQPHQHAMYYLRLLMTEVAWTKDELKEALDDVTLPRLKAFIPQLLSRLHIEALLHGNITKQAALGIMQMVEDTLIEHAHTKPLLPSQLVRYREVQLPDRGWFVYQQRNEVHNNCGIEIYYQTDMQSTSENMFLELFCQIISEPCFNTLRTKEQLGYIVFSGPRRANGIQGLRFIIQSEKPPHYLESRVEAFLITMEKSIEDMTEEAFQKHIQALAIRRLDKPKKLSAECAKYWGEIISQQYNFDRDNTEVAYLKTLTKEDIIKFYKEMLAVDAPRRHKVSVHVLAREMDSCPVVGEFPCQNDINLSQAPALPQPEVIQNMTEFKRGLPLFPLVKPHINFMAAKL

[2] = target: T1, Insulin-degrading enzyme; assay: cellular IDE activation of Abeta substrate cleavage – fluorescence polarization, HEK cells, dose response (AID 588439); type: functional, cell-based
[3] = test system: HEK293; assay: optical interference in Abeta FP readout, dose response, artefact control for IDE activator project, biochemical, fluorescence polarization (AID 588442); type: functional, cell-based; conditions: Homo sapiens
[4] = test system: HEK293; assay: membrane integrity loss in HEK cells – cell-based, fluorescence, cytotoxicity control for IDE activator project, dose response (AID 588440); type: functional; conditions: Homo sapiens;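 further: cytotoxicity by LDH release measuring loss of membrane integrity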
[5] = target: Neurotensin receptor type 1 (Homo sapiens, UniProt P30989); type: functional;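 further: Image-based confirmatory dose-response assay measuring agonist activity at NTR1; NTR1-expressing U2OS osteosarcoma cells imaged for beta-arrestin GFP spot formation; agonist potency where compounds increase beta-arrestin recruitment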
Neurotensin receptor type 1, sequence (P30989 whole entry): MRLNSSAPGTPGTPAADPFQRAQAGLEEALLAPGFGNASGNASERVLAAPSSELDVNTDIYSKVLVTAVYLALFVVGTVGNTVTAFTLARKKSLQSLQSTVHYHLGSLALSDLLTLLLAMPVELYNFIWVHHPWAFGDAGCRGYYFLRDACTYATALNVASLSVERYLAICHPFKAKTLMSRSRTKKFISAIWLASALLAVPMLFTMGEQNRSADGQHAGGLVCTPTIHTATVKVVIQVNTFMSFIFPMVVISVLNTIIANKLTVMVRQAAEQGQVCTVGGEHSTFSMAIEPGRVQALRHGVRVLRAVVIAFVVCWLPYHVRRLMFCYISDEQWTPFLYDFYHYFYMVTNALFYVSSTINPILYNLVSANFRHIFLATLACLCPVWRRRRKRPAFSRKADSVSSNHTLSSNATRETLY

[6] = Luminescence Cell-Based Dose Retest to Confirm Inhibitors of Cancer Stem Cells. [Related pubchem assays (depositor defined):AID2717, AID2721]; type: functional; conditions: Homo sapiens
[7] = Mcl1-dependent cancer cell viability – HMC-1-8 cells, luminescence, dry powder, selectivity assay for A1 inhibitor project, dose response (AID 504415); type: functional, cell-based; conditions: Homo sapiens
[8] = viability loss in HepG2 hepatoma cells – cell-based, ATP luminescence, cherry-pick, activator set 2, cytotoxicity control, dose response (AID 1053143); type: functional

Row | Structure (SMILES) | EC50 [1] | EC50 [2] | EC50 [3] | IC50 [4] | EC50 [5] | AC50 [6] | AC50 [7] | AC50 [8]
1 | CCN(CC(=O)Nc1ccc(NC(C)=O)cc1)C(=O)c1cc(CN2C(=O)c3ccccc3C2=O)ccc1OC | > 54.7 µM (inactive) | > 54.7 µM (inactive) | > 54.7 µM (inactive) | > 89.2 µM (inactive) | – | – | – | –
2 | Cc1ccc(Sc2c([N+](=O)[O-])c(=O)n(C)c3ccccc23)cc1 | – | – | – | – | 26 µM (inactive) | 3.18 µM (active) | 19.3 µM (active) | 26 µM (active)
